Tests used:
[1] = Determination of half-life in C57BL/6 mice; assay type: in vivo; conditions: mouse, 2 mg/kg; male C57BL/6 mice, intravenous, 2 mpk, plasma
Protocol: C57BL/6 mice (male) were selected, and the compound of the present invention was intravenously administered at a dose of 2 mpk, About 0.03 mL of whole blood was collected from the mouse orbital venous plexus at 0 h before administration, 0.0833, 0.25, 0.5, 1, 2, 4, 6, 8 and 24 h after administration. The blood was placed in a centrifuge tube containing EDTA-K2 anticoagulant, and placed in crushed ice after collection. Centrifuge at 2000 g and 4° C. for 10 min within 0.5 hours, and 10 μL of plasma was quantitatively divided and placed in another clean centrifuge tube, placed in a −20° C. refrigerator, and the blood drug concentration was determined by LC-MS/MS method.

[2] = Determination of brain/plasma ratio; assay type: in vivo; conditions: mouse, male C57BL/6 mice, oral 10 mg/kg, ratio of average drug concentration in brain tissue to plasma
Protocol: Male C57BL/6 mice were used as research subjects, and brain perfusion technology was used to investigate the pharmacokinetic characteristics of the compound of the present invention transported through the blood-brain barrier, and the drug concentrations in the blood and brain tissue samples of mice after 0.25 h, 1 h, 4 h and 8 h were detected, and the ratio of the average drug concentrations in brain tissue and plasma was calculated.
Oral administration solution (1.000 mg·ml^−1) of the compound of the present invention was prepared:
Weigh 3.116 mg of the compound and place it in an EP tube, then add DMS 0.156 mL, Solutol 0.312 mL and ultrapure water 2.648 mL (the volume ratio of the three is 5:10:85, v:v:v), vortex ultrasound to fully dissolve it, and the final actual concentration is 1.000 mg·mL-1 of the clear administration solution.
C57BL/6 mice (male), purchased from Sibeifu (Beijing) Biotechnology Co., Ltd., experimental animal production license number: SCXK (Beijing) 2019-0010.
Fasting: Overnight fasting, no water withdrawal, feed provided 4 hours after medication.
Select qualified healthy C57BL/6 mice, 3 per group. After oral administration (10 mg/kg), about 150 μL of whole blood was collected from the orbital venous plexus of mice at 0.25 h, 1 h, 4 h and 8 h after medication and placed in a centrifuge tube containing EDTA-K2 anticoagulant. After administration, the mice were anesthetized about 1 minute before the scheduled time point, and brain perfusion was performed at 0.25 h, 1 h, 4 h and 8 h after administration. After perfusion, the mouse brain tissue samples were dissected with ophthalmic scissors and ophthalmic forceps, and the remaining blood on the tissue surface was immediately rinsed with ultrapure water within 5 min, wiped dry, weighed, and 4 times the volume of acetonitrile-water solution (10:90, v:v) was added and homogenized, and then the homogenate was placed in a −20° C. refrigerator for testing. The collected samples were placed in an ice bath during the entire experimental operation.
According to the time points specified in the above experimental protocol, about 150 μL of whole blood was collected from the orbital venous plexus of C57BL/6 mice after administration and placed in a 1.5 mL centrifuge tube containing EDTAN-K2. The collected whole blood was centrifuged at 2000 g, 4° C. for 10 min, and all plasma was divided and placed in another clean centrifuge tube, and then placed in a −20° C. refrigerator for testing.
Adjust the peristaltic pump device to ensure that it works normally, the liquid flows out smoothly and stably, and there is no air in the flow path. Anesthetize the mice after administration with a mixed anesthetic of 70% CO2 and 30% O2, After the animal is fully anesthetized, quickly open the chest cavity with surgical scissors to expose the heart. […] Turn on the peristaltic pump switch and perfuse for 2-5 minutes. The perfusion fluid is 100 U/1000 mL heparin sodium saline. After the perfusion is completed, use ophthalmic scissors and ophthalmic forceps to dissect the mouse brain tissue sample, immediately rinse the remaining blood on the tissue surface with ultrapure water within 5 minutes, wipe dry, weigh, add 4 times the volume of acetonitrile-water solution (10:90, v:v) and homogenize, and then place the homogenate in a −20° C. refrigerator for testing.
Calculate the ratio of the average drug concentration in brain tissue to that in plasma, i.e., the brain/plasma ratio.

α-synuclein = target: T1, α-synuclein (Homo sapiens, UniProt P37840); assay: Detection of the ability of compounds to inhibit α-synuclein self-aggregation by HPLC; assay type: biochemical; conditions: test compound 200 μg/mL, α-synuclein 250 μg/ml, 37° C., 9 days; HPLC peak area of α-synuclein multimers vs model group; read-out: inhibition rate (%)
T1 construct: purchased Sino Biological
Protocol: The test compound (for poorly soluble compounds, dissolve with an appropriate amount of DMSO first) and fresh α-synuclein monomers (purchased from Sino Biological) were added to pure water to a final protein concentration of 250 μg/ml, and the concentration of the test compound was 200 μg/mL, followed by incubation at 37° C. for 9 days. The peak area of α-synuclein multimers after incubation was detected by HPLC and the inhibition rate was calculated. […] Inhibition rate=(peak area of model group−peak area of example group)/peak area of model group×100%.

Compound	half-life [1] [h]	Kp at 4 h [2]	inhibition at 200 µg/mL (α-synuclein) [%]
CCCCC(Cc1c[nH]c2ccccc12)NC(=O)c1cnc(N2CCN(C)CC2)s1 (stereo not drawn) [Comparative Example 1, reference compound]	0.39	0.35	
CCCC[C@H](Cc1c[nH]c2ccccc12)NC(=O)c1cc2ccc(N3CCN(C)CC3)cc2s1 [Example 43, (R)—N-(1-(1H-indol-3-yl)hexane-2-yl)-6-(4-methylpiperazin-1-yl) benzo[b]thiophene-2-carboxamide]	1.32	1.7	98.6
CCCCC(Cc1c[nH]c2ccccc12)NC(=O)c1cc2ccc(N3CCC(O)CC3)cc2s1 (stereo not drawn) [Example 19, N-(1-(1H-indol-3-yl)hexane-2-yl)-6-(4-hydroxypiperidin-1-yl) benzo[b]thiophene-2-carboxamide]			93.5
CCCCC(Cc1c[nH]c2ccccc12)NC(=O)c1cc2ccc(N3CCN(C)CC3)cc2s1 (racemic) [Example 1, N-(1-(1H-indol-3-yl)hexane-2-yl)-6-(4-methylpiperazin-1-yl)benzo[b]thiophene-2-carboxamide]	2.21	1.53	98.3
CCCCC(Cc1c[nH]c2ccccc12)NC(=O)c1cc2cc(F)c(N3CCN(C)CC3)cc2s1 (stereo not drawn) [Example 5, N-(1-(1H-indol-3-yl)hexane-2-yl)-5-fluoro-6-(4-methylpiperazin-1-yl) benzo[b]thiophene-2-carboxamide]			98.6
COCCC(Cc1c[nH]c2ccccc12)NC(=O)c1cc2ccc(N3CCN(C)CC3)cc2s1 (stereo not drawn) [Example 34, N-[1-(CH-indol-3-yl)-4-methoxybutyl-2-yl]-6-(4-methylpiperazin-1-yl)-1-benzothiophene-2-carboxamide]			97.5
CCCCC(Cc1c[nH]c2ccccc12)NC(=O)c1cc2ccc(N3CCN(S(C)(=O)=O)CC3)cc2s1 (stereo not drawn) [Example 45, N-[1-(1H-indol-3-yl)hexane-2-yl]-6-(4-methylsulfonylpiperazine-1-yl)-benzothiophene-2-carboxamide]			82.3
CCCCC(Cc1c[nH]c2ccccc12)NC(=O)c1cc2c(F)cc(N3CCN(C)CC3)cc2s1 (stereo not drawn) [Example 6, N-(1-(1H-indol-3-yl)hexane-2-yl)-4-fluoro-6-(4-methylpiperazin-1-yl) benzo[b]thiophene-2-carboxamide]			97.8
CCCCC(Cc1c[nH]c2ccccc12)NC(=O)c1cc2cc(N3CCN(C)CC3)ccc2s1 (stereo not drawn) [Example 7, N-(1-(1H-indol-3-yl)hexane-2-yl)-5-(4-methylpiperazine-1-yl) benzo[b]thiophene-2-carboxamide]			71.5
CCCCC(Cc1c[nH]c2ccccc12)NC(=O)c1cc2ccc(N3CCN(c4ccccc4)CC3)cc2s1 (stereo not drawn) [Example 14, N-(1-(1H-indol-3-yl)hexane-2-yl)-6-(4-phenylpiperazine-1-yl) benzo[b]thiobene-2-carboxamide]			73.5
CCCCC(Cc1c[nH]c2ccccc12)NC(=O)c1cc2ccc(N3CCN(C)C(=O)C3)cc2s1 (stereo not drawn) [Example 46, N-[1-(1H-indol-3-yl)hexane-2-yl]-6-(4-methyl-3-oxopiperazin-1-yl)-benzothiophene-2-carboxamide]			78.9
CCCCC(Cc1c[nH]c2ccccc12)NC(=O)c1cc2ccc(N3CCC(F)(F)CC3)cc2s1 (stereo not drawn) [Example 15, N-(1-(1H-indol-3-yl)hexane-2-yl)-6-(4,4-difluoropiperidin-1-yl) benzo[b]thiophene-2-carboxamide]			96.2
CCCCC(Cc1c[nH]c2ccccc12)NC(=O)c1cc2ccc(N3CCC4(CC3)CN(C3CCN(C)CC3)C4)cc2s1 (stereo not drawn) [Example 21]			78.2
CCOCC(Cc1c[nH]c2ccccc12)NC(=O)c1cc2ccc(N3CCN(C)CC3)cc2s1 (stereo not drawn) [Example 39, N-(1-ethoxy-3-(1H-indol-3-yl)propane-2-yl)-6-(4-methylpiperazin-1-yl) benzo[b]-thiophene-2-carboxamide]			92.6
CCCCC(Cc1c[nH]c2ccccc12)NC(=O)c1cc2ccc(N3CCOCC3)cc2s1 (stereo not drawn) [Example 23, N-(1-(1H-indol-3-yl)hexane-2-yl)-6-morpholinobenzo[b]thiophene-2-carboxamide]			89.7
CCCCC(Cc1c[nH]c2ccccc12)NC(=O)c1cc2cnc(N3CCN(C)CC3)nc2s1 (stereo not drawn) [Example 29, N-(1-(1H-indole-3-yl)hexane-2-yl)-2-(4-methylpiperazine-1-yl) thieno [2,3-d]pyrimidine-6-carboxamide]			96.7
CCCCC(Cc1c[nH]c2ccccc12)NC(=O)c1cc2ccc(N3CCC(C)(O)CC3)cc2s1 (stereo not drawn) [Example 48, N-(1-(1H-indol-3-yl)hexane-2-yl)-6-(4-hydroxy-4-methylpiperidin-1-yl) benzo[b]-thiophene-2-carboxamide]			96.5
CCCCC(Cc1c[nH]c2ccccc12)NC(=O)c1cc2ccc(N3CCC(N(C)C)CC3)cc2s1 (stereo not drawn) [Example 24, N-(1-(1H-indol-3-yl)hexane-2-yl)-6-(4-(dimethylamino)piperidin-1-yl) benzo[b]thiophene-2-carboxamide]			89.7
CCOCCC(Cc1c[nH]c2ccccc12)NC(=O)c1cc2ccc(N3CCN(C)CC3)cc2s1 (stereo not drawn) [Example 41, N-(4-ethoxy-1-(1H-indol-3-yl)butane-2-yl)-6-(4-methylpiperazin-1-yl) benzol[b]-thiophene-2-carboxamide]			82.5
CCCCC(Cc1c[nH]c2ccccc12)NC(=O)c1cc2ccc(N3CCC(C)(O)C3)cc2s1 (stereo not drawn) [Example 51, N-(1-(1H-indol-3-yl)hexane-2-yl)-6-(3-hydroxy-3-methylpyrrolidin-1-yl) benzo[b]-thiophene-2-carboxamide]			90.3
CCCCC(Cc1c[nH]c2ccccc12)NC(=O)c1cc2ccc(N3CCC4(CC3)CN(C)C4)cc2s1 (stereo not drawn) [Example 22]			83.8
CCCCC(Cc1c[nH]c2ccccc12)NC(=O)c1cc2c(C)nc(N3CCN(C)CC3)cc2s1 (stereo not drawn) [Example 9, N-(1-(1H-indol-3-yl)hexane-2-yl)-4-methyl-6-(4-methylpiperazin-1-yl) thieno[3,2-c]pyridine-2-carboxamide]			78.1
CCCCC(Cc1c[nH]c2ccccc12)NC(=O)c1cc2ccc(N3CCN(C)CC3=O)cc2s1 (stereo not drawn) [Example 47, N-[1-(1H-indol-3-yl)hexane-2-yl]-6-(4-methyl-2-oxypiperazin-1-yl)-1-benzothiophene-2-carboxamide]			73.5
CCCCC(Cc1c[nH]c2ccccc12)NC(=O)c1cc2ccc(N3CC(C)(O)C3)cc2s1 (stereo not drawn) [Example 49, N-(1-(1H-indol-3-yl)hexane-2-yl)-6-(3-hydroxy-3-methylazetidine-1-yl) benzo[b]-thiophene-2-carboxamide]			92.9
CN(C)CCC(Cc1c[nH]c2ccccc12)NC(=O)c1cc2ccc(N3CCN(C)CC3)cc2s1 (stereo not drawn) [Example 38]			78.3
